Target: T1, human FSH receptor (Homo sapiens, UniProt P23945)
T1 construct: expressed in transfected cells
T1 sequence (P23945 18-695): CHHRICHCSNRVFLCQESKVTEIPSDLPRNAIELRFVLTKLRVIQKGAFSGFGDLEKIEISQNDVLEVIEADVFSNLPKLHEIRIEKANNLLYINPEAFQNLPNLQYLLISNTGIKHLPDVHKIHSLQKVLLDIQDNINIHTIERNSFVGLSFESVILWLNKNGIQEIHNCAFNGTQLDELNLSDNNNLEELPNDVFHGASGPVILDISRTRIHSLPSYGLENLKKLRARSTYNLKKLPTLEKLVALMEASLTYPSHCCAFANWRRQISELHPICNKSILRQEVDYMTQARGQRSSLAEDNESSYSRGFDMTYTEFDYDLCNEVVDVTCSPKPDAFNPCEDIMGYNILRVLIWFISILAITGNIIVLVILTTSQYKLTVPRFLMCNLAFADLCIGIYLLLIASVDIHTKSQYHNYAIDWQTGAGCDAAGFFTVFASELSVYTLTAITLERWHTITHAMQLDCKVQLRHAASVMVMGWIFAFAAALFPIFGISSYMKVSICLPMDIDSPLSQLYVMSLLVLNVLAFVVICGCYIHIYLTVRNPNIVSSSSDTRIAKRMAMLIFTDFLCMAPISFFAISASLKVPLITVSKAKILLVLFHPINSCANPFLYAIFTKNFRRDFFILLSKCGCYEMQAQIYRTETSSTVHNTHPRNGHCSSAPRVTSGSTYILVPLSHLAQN
Assay: hFSHRago (CHO luc): agonistic activity at the human FSH receptor expressed in CHO cells, CRE-luciferase reporter
Type: cell-based
Details: CHO cells stably transfected with human FSH receptor and CRE/luciferase reporter; 4 hours of incubation

| EC50 [µM] | Compound |
| --- | --- |
| 0.173 | COc1cc2c(cc1OC(C)C)-c1c(-c3cccs3)cc(C(=O)N3C[C@H]4C[C@@H](N(C)C(C)=O)C[C@H]4C3)n1CC2 [Example 26, N-[2-(9-Isopropoxy-8-methoxy-1-thiophen-2-yl-5,6-dihydro-pyrrolo[2,1-α]isoquinoline-3-carbonyl)-octahydro-cyclopenta[c]pyrrol-5-yl]-N-methyl-acetamide] |
| 0.0162 | CCC1CCCN1C(=O)c1cc(-c2cccs2)c2n1CCc1cc(OC)c(OC(C)C)cc1-2 (stereo not drawn) [Example 27, (2-Ethyl-pyrrolidin-1-yl)-(9-isopropoxy-8-methoxy-1-thiophen-2-yl-5,6-dihydro-pyrrolo[2,1-α]isoquinolin-3-yl)-methanone] |
| 0.752 | COc1cc2c(cc1OC(C)C)-c1c(-c3cccs3)cc(C(=O)N3CCCC3c3cccc(F)c3)n1CC2 (stereo not drawn) [Example 28, [2-(3-Fluoro-phenyl)-pyrrolidin-1-yl]-(9-isopropoxy-8-methoxy-1-thiophen-2-yl-5,6-dihydro-pyrrolo[2,1-α]isoquinolin-3-yl)-methanone] |
| 0.624 | COc1cc2c(cc1OC(C)C)-c1c(-c3cccs3)cc(C(=O)N3CCCC3c3cccnc3)n1CC2 (stereo not drawn) [Example 29, (9-Isopropoxy-8-methoxy-1-thiophen-2-yl-5,6-dihydro-pyrrolo[2,1-α]isoquinolin-3-yl)-(2-pyridin-3-yl-pyrrolidin-1-yl)-methanone] |
| 0.241 | COc1cc2c(cc1OC(C)C)-c1c(-c3cccs3)cc(C(=O)N(C)N(C)C)n1CC2 [Example 31, 9-Isopropoxy-8-methoxy-1-thiophen-2-yl-5,6-dihydro-pyrrolo[2,1-α]isoquinoline-3-carboxylic acid trimethylhydrazide] |
| 0.0552 | COc1cc2c(cc1OC(C)C)-c1c(-c3cccs3)cc(C(=O)N(C)N3CCCC3)n1CC2 [Example 32, 9-Isopropoxy-8-methoxy-1-thiophen-2-yl-5,6-dihydro-pyrrolo[2,1-α]isoquinoline-3-carboxylic acid methyl-pyrrolidin-1-yl-amide] |
| 0.252 | COc1cc2c(cc1OC(C)C)-c1c(-c3cccs3)cc(C(=O)N[C@@H]3CCCN(C(=O)C4CCC4)C3)n1CC2 [Example 33c, 9-Isopropoxy-8-methoxy-1-thiophen-2-yl-5,6-dihydro-pyrrolo[2,1-α]isoquinoline-3-carboxylic acid ((R)-1-cyclobutanecarbonyl-piperidin-3-yl)-amide] |
| 0.279 | CCN(C(=O)c1cc(-c2cccs2)c2n1CCc1cc(OC)c(OC(C)C)cc1-2)[C@@H]1CCCN(C(=O)C2CCC2)C1 [Example 33d, 9-Isopropoxy-8-methoxy-1-thiophen-2-yl-5,6-dihydro-pyrrolo[2,1-α]isoquinoline-3-carboxylic acid ((R)-1-cyclobutanecarbonyl-piperidin-3-yl)-ethyl-amide] |
| 0.251 | COc1cc2c(cc1OC(C)C)-c1c(-c3cccs3)cc(C(=O)N[C@@H]3CCCN(C(C)=O)C3)n1CC2 [Example 34c, 9-Isopropoxy-8-methoxy-1-thiophen-2-yl-5,6-dihydro-pyrrolo[2,1-α]isoquinoline-3-carboxylic acid ((R)-1-acetyl-piperidin-3-yl)-amide] |
| 0.496 | COc1cc2c(cc1OC(C)C)-c1c(-c3cccs3)cc(C(=O)N(C)[C@@H]3CCCN(C(C)=O)C3)n1CC2 [Example 34d, 9-Isopropoxy-8-methoxy-1-thiophen-2-yl-5,6-dihydro-pyrrolo[2,1-α]isoquinoline-3-carboxylic acid ((R)-1-acetyl-piperidin-3-yl)-methyl-amide] |
| 0.0025 | COc1cc2ccn3c(C(=O)N(C)C(C)(C)C)cc(-c4cccs4)c3c2cc1OCCO [Example 36, 9-(2-Hydroxy-ethoxy)-8-methoxy-1-thiophen-2-yl-pyrrolo[2,1-α]isoquinoline-3-carboxylic acid tert-butyl-methyl-amide] |
| 0.234 | COc1cc2c(cc1OC(C)C)-c1c(Br)cc(C(=O)N(C)C(C)(C)C)n1CC2 [Example 37c, 1-Bromo-9-isopropoxy-8-methoxy-5,6-dihydro-pyrrolo[2,1-α]isoquinoline-3-carboxylic acid tert-butyl-methyl-amide] |
| 0.0671 | COc1cc2c(cc1OC(C)C)-c1c(C#N)cc(C(=O)N(C)C(C)(C)C)n1CC2 [Example 37d, 1-Cyano-9-isopropoxy-8-methoxy-5,6-dihydro-pyrrolo[2,1-α]isoquinoline-3-carboxylic acid tert-butyl-methyl-amide] |
| 1.64 | COc1cc2c(cc1OC(C)C)-c1c(-c3nnn[nH]3)cc(C(=O)N(C)C(C)(C)C)n1CC2 [Example 38, 9-Isopropoxy-8-methoxy-1-(1H-tetrazol-5-yl)-5,6-dihydro-pyrrolo[2,1-α]isoquinoline-3-carboxylic acid tert-butyl-methyl-amide] |
| 0.0027 | COc1cc2c(cc1OC(C)C)-c1c(-c3cccs3)c(C=O)c(C(=O)N(C)C(C)(C)C)n1CC2 [Example 39, 2-Formyl-9-isopropoxy-8-methoxy-1-thiophen-2-yl-5,6-dihydro-pyrrolo[2,1-α]isoquinoline-3-carboxylic acid tert-butyl-methyl-amide] |
| 0.0028 | COCc1c(-c2cccs2)c2n(c1C(=O)N(C)C(C)(C)C)CCc1cc(OC)c(OC(C)C)cc1-2 [Example 41, 9-Isopropoxy-8-methoxy-2-methoxymethyl-1-thiophen-2-yl-5,6-dihydro-pyrrolo[2,1-α]isoquinoline-3-carboxylic acid tert-butyl-methyl-amide] |
| 0.0012 | COc1cc2c(cc1OC(C)C)-c1c(-c3cccs3)c(C=NO)c(C(=O)N(C)C(C)(C)C)n1CC2 [Example 42, 2-(Hydroxyimino-methyl)-9-isopropoxy-8-methoxy-1-thiophen-2-yl-5,6-dihydro-pyrrolo[2,1-α]isoquinoline-3-carboxylic acid tert-butyl-methyl-amide] |
| 0.0043 | CON=Cc1c(-c2cccs2)c2n(c1C(=O)N(C)C(C)(C)C)CCc1cc(OC)c(OC(C)C)cc1-2 [Example 43, 9-Isopropoxy-8-methoxy-2-(methoxyimino-methyl)-1-thiophen-2-yl-5,6-dihydro-pyrrolo[2,1-α]isoquinoline-3-carboxylic acid tert-butyl-methyl-amide] |
| 0.0651 | COc1cc2c(cc1OC(C)C)-c1c(-c3cccs3)cc(C(=O)CC(C)(C)C)n1CC2 [Example 45] |
| 0.0782 | COc1cc2c(cc1OC(C)C)-c1c(-c3cccs3)cc(C(=O)C3CCCC3)n1CC2 [Example 46, Cyclopentyl-(9-isopropoxy-8-methoxy-1-thiophen-2-yl-5,6,6a,10a-tetrahydro-pyrrolo[2,1-α]isoquinolin-3-yl)-methanone] |
| 0.149 | COc1cc2c(cc1OC(C)C)-c1c(-c3cccs3)cc(C(=O)C(C)N(C)C)n1CC2 (stereo not drawn) [Example 47, 2-Dimethylamino-1-(9-isopropoxy-8-methoxy-1-thiophen-2-yl-5,6-dihydro-pyrrolo[2,1-α]isoquinolin-3-yl)-propan-1-one] |
| 0.0894 | COc1cc2c(cc1OC(C)C)-c1c(-c3cccs3)cc(C(=O)C(C)N3CCOCC3)n1CC2 (stereo not drawn) [Example 48, 1-(9-Isopropoxy-8-methoxy-1-thiophen-2-yl-5,6-dihydro-pyrrolo[2,1-α]isoquinolin-3-yl)-2-morpholin-4-yl-propan-1-one] |
| 0.2 | COc1cc2c(cc1OC(C)C)-c1c(-c3cccs3)cc(C(=O)C(C)N3CCCN(C(C)=O)CC3)n1CC2 (stereo not drawn) [Example 49, 2-(4-Acetyl-[1,4]diazepan-1-yl)-1-(9-isopropoxy-8-methoxy-1-thiophen-2-yl-5,6-dihydro-pyrrolo[2,1-α]isoquinolin-3-yl)-propan-1-one] |
| 0.22 | COc1cc2c(cc1OC(C)C)-c1c(C3CCCC3)cc(C(=O)NC(C)(C)C)n1CC2 [Example 50, 1-Cyclopentyl-9-isopropoxy-8-methoxy-5,6-dihydro-pyrrolo[2,1-α]isoquinoline-3-tert-butylamide] |
| 0.0042 | COc1cc2c(cc1NC(C)C)-c1c(-c3cccs3)cc(C(=O)N(C)C(C)(C)C)n1CC2 [Example 51, 9-Isopropylamino-8-methoxy-1-thiophen-2-yl-5,6-dihydro-pyrrolo[2,1-α]isoquinoline-3-carboxylic acid tert-butyl-methyl-amide] |
| 0.356 | COc1cc2c(cc1O)-c1c(-c3cccs3)cc(C(=O)N(C)C(C)(C)C)n1CC2 [Example 52, 9-Hydroxy-8-methoxy-1-thiophen-2-yl-5,6-dihydro-pyrrolo[2,1-α]isoquinoline-3-carboxylic acid tert-butyl-methyl-amide] |

| Compound | EC50 [µM] |
| --- | --- |
| COc1cc2c(cc1OC(C)C)-c1c(-c3ccccn3)cc(C(=O)N3CCCN(C(=O)c4ccccn4)CC3)n1CC2 [Example 35, (9-Isopropoxy-8-methoxy-1-pyridin-2-yl-5,6-dihydro-pyrrolo[2,1-α]isoquinolin-3-yl)-[4-(pyridine-2-carbonyl)-[1,4]diazepan-1-yl]-methanone; trifluoro acetic acid] | 0.244 |
| COc1cc2c(cc1OC(C)C)-c1c(-c3cccs3)c(CO)c(C(=O)N(C)C(C)(C)C)n1CC2 [Example 40, 2-Hydroxymethyl-9-isopropoxy-8-methoxy-1-thiophen-2-yl-5,6-dihydro-pyrrolo[2,1-α]isoquinoline-3-carboxylic acid tert-butyl-methyl-amide] | 0.0088 |

— US8394789B2, “(Dihydro)pyrrolo[2,1-α]isoquinolines” (MSD Oss B.V., priority 2008, dated 2013)
